Here are results for 14 compounds from PubChem BioAssay (NCI).

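Values below derive from 48-hour exposures of cells grown in 96-well plates, with endpoints linearly interpolated between the two concentrations bracketing the appropriate inhibition level. GI50 marks 50% less growth. TGI: total growth inhibition.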

What all share (assay): growth of human tumour cells (NCI), 48 h
Assay [1] concerns IGROV1 ovarian.
The subject of assay [2] is MOLT-4 leukemia.
For assay [3], the system named is OVCAR-5 ovarian.
The test system of assay [4] is M14 melanoma.
The test system of assay [5] is OVCAR-4 ovarian.
Assay [6] has as its system SF-295 CNS.
The subject of assay [7] is TK-10 renal.
Assay [8] deals with SR leukemia.

`N#C/C(=C1\OC(=N)C(c2ccc(Cl)cc2Cl)C1=O)c1ccc(Cl)cc1Cl` (centres undefined): the TGI in assay [1], in assay [2], in assay [3], in assay [4], in assay [5] and in assay [6] was more than 100 µM throughout. Also, the TGI in assay [7] is more than 100 µM.
Consider `CC(=O)OCC(CC[CH2][Sn]([Cl])([Cl])[c]1ccccc1)OC(C)=O` (centres undefined), for which the GI50 in assay [1] was 25.5 µM; in assay [2], 22 µM; in assay [3] it was 15.7 µM; in assay [4], 16.2 µM; in assay [5], 16.4 µM; in assay [6], 24.5 µM. In addition, the GI50 in assay [7] is 27.5 µM; in assay [8], 10.7 µM. For the same compound, the TGI came out at 68.8 µM in assay [1]; 63.7 µM in assay [2]; 42 µM in assay [3]; 29.7 µM in assay [4]; 31.4 µM in assay [5]; 60 µM in assay [6]. In addition, the TGI in assay [7] was more than 100 µM; in assay [8], 50.4 µM.
Take `CC(C)OC(=O)C1Cc2c([nH]c3ccccc23)C(c2ccccc2)N1` (centres undefined): the TGI in assay [1], in assay [2], in assay [3], in assay [4], in assay [5] and in assay [6] was more than 100 µM in each case. In assay [7], this compound had a TGI of more than 100 µM.
For the compound `C/C(=N\NC(=O)C(N)=O)c1c(O)cc(C)oc1=O`, the TGI in assay [1], in assay [2], in assay [4], in assay [5], in assay [6] and in assay [7] was more than 100 µM in each case. This compound came in with a TGI in assay [8] of more than 100 µM.
As for `C[P+]1(c2ccccc2)CCCCC1`, the TGI in assay [1], in assay [2], in assay [3], in assay [4], in assay [5] and in assay [6] was more than 100 µM in each case. In assay [7], the TGI is more than 100 µM.
As for `CC(=O)CC(=O)CCC(=O)Nc1cccc(C(F)(F)F)c1`, the TGI in assay [1], in assay [2], in assay [3], in assay [4], in assay [5] and in assay [6] was more than 100 µM each time. This compound also returned a TGI in assay [7] of more than 100 µM.
In the case of `C=C1C=CC2(Br)OC3CC(C)(Cl)C(Br)CC13C2(C)C` (centres undefined), the TGI is 92.7 µM in assay [1]; 34.9 µM in assay [2]; 57.6 µM in assay [3]; 53.2 µM in assay [4]; more than 100 µM in assay [5]; 45.5 µM in assay [6]. The compound further returned a TGI in assay [7] of more than 100 µM.
For `O=C(Cc1ccccc1)C(c1ccccc1)S(=O)(=O)c1ccccc1` (centres undefined), the TGI in assay [1], in assay [2], in assay [3], in assay [4], in assay [5] and in assay [6] was more than 100 µM in each case. Also, the TGI in assay [7] and in assay [8] was more than 100 µM each time.
As to `Cc1ccc(C2=Nc3ccccc3SC(c3cccc4c3OCO4)C2)cc1` (centres undefined), the TGI in assay [1] is 42.4 µM; in assay [2], 55.7 µM; in assay [3], 51.5 µM; in assay [4] it was 34.9 µM; in assay [5] it was 33.7 µM; in assay [6], 45.6 µM. In assay [7], this compound registered a TGI of 40.3 µM.
For the compound `O=C(CO)C1CC2C=CC1C2` (centres undefined), the TGI in assay [1], in assay [2], in assay [3], in assay [4], in assay [5] and in assay [6] was more than 100 µM in each case. In addition, the TGI in assay [7] was more than 100 µM.
As to `N#CNC1=NC(N)C(c2nc3ccccc3[nH]2)=C(CCCC(=O)Nc2cccc([N+](=O)[O-])c2)N1` (centres undefined), the TGI in assay [1], in assay [2], in assay [3], in assay [4], in assay [5] and in assay [6] was more than 100 µM in each case. In assay [7], this compound displayed a TGI of more than 100 µM.
Take `Cc1ccc(NC(=O)/C(C#N)=C/c2ccccc2)c(C)c1`: the TGI in assay [1], in assay [2], in assay [3], in assay [4], in assay [5] and in assay [6] was more than 100 µM in each case. The TGI in assay [7] and in assay [8] was more than 100 µM each time.
As to `CCOC(=O)C(CCCNC(=O)OC(C)(C)C)N(Cc1ccc(OC)cc1OC)C(=O)CC(=O)CP(=O)(OCC)OCC` (centres undefined), the TGI in assay [1], in assay [2], in assay [3], in assay [4], in assay [5] and in assay [6] was more than 100 µM throughout. For the same compound, the TGI in assay [7] and in assay [8] was more than 100 µM in each case.
Turning to `c1ccc(-c2csc3ncn4cnnc4c23)cc1`, the TGI in assay [1], in assay [2], in assay [4], in assay [5], in assay [6] and in assay [7] was more than 100 µM in each case.
